Experimental data published in ChEMBL document CHEMBL1157954, “Cycloleonuripeptides E and F, cyclic nonapeptides from Leonurus heterophyllus” (2006).
Residues, ends and D or L forms follow the SMILES beside them.

Test system: Aorta
Experiment: Vasorelaxation activity in Wistar rat thoracic aorta assessed as inhibition of norepinephrine-induced contraction at 10^-4 M
Assay type: functional
Parameters: scale not given: the % may be the effect or the level left

| SMILES | Activity [%] |
| --- | --- |
| CC[C@H](C)[C@@H]1NC(=O)[C@@H]2CCCN2C(=O)[C@H](C)NC(=O)[C@@H]2CCCN2C(=O)[C@H]([C@@H](C)O)NC(=O)[C@H](Cc2ccccc2)NC(=O)[C@H](C)NC(=O)[C@H](C)NC(=O)[C@H](C(C)C)NC1=O [CYCLOLEONURIPEPTIDE E] (cyclo(AAFTPAPIV)) | 32 |
| CC(C)C[C@@H]1NC(=O)[C@@H]2CCCN2C(=O)[C@H](Cc2ccc(O)cc2)NC(=O)CNC(=O)[C@@H]2CCCN2C(=O)[C@@H]2CCCN2C(=O)[C@H](Cc2ccc(O)cc2)NC(=O)[C@H](Cc2ccccc2)NC(=O)[C@@H]2CCCN2C1=O [CYCLOLEONURIPEPTIDE F] (cyclo(FYPPGYPLP)) | 40 |
